# Source: ChEMBL document CHEMBL1201862, “PubChem BioAssay data set” (2004)
#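 All cell lines were grown in 96-well plates and treated with compound for 48 hours. Abbreviation: GI50, concentration required for 50% inhibition of growth.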 Calls of active or inactive are those of the source. Rule as the data show it: active = GI50 up to about 1.1 µM and inactive = higher.
# Columns and labels:
# Test in all cases: inhibition of tumour cell growth, NCI panel, 48 h
# NCI-H460 = system: NCI-H460
# RXF 393 = system: RXF 393
# HCC 2998 = system: HCC 2998
# M14 = system: M14
# T47D = system: T47D
# UACC-62 = system: UACC-62
# CAKI-1 = system: CAKI-1
# Malme-3M = system: Malme-3M
# PC-3 = system: PC-3
# HT-29 = system: HT-29
# HL-60 = system: HL-60
# IGROV-1 = system: IGROV-1
# UACC-257 = system: UACC-257
# SK-OV-3 = system: SK-OV-3
# MOLT-4 = system: MOLT-4
# U-251 = system: U-251
# A549 = system: A549
# OVCAR-8 = system: OVCAR-8
# A498 = system: A498
# UO-31 = system: UO-31
# MCF7 = system: MCF7
# OVCAR-5 = system: OVCAR-5
# HCT-116 = system: HCT-116
# SK-MEL-28 = system: SK-MEL-28
# SF-295 = system: SF-295
# HCT-15 = system: HCT-15
# SK-MEL-2 = system: SK-MEL-2
# SW-620 = system: SW-620
# OVCAR-3 = system: OVCAR-3
# SK-MEL-5 = system: SK-MEL-5
# HOP-92 = system: HOP-92
# CCRF-CEM = system: CCRF-CEM
# NCI-H522 = system: NCI-H522
# COLO 205 = system: COLO 205
# Hs-578T = system: Hs-578T
# SR = system: SR
# 786-0 = system: 786-0
# BT-549 = system: BT-549
# NCI/ADR-RES = system: NCI/ADR-RES
# KM12 = system: KM12
# DU-145 = system: DU-145
# SNB-19 = system: SNB-19
# SNB-75 = system: SNB-75
# TK-10 = system: TK-10
# MDA-N = system: MDA-N
# NCI-H226 = system: NCI-H226
# NCI-H23 = system: NCI-H23
# RPMI-8226 = system: RPMI-8226
# ACHN = system: ACHN
# MDA-MB-435 = system: MDA-MB-435
# OVCAR-4 = system: OVCAR-4
# LOX IMVI = system: LOX IMVI
# K562 = system: K562
# EKVX = system: EKVX
# MDA-MB-231 = system: MDA-MB-231
# SF-539 = system: SF-539
# SF-268 = system: SF-268
# SN12C = system: SN12C
# HOP-62 = system: HOP-62
compound,measurement,setting,value
CCN(CC)CCOC(=O)CCN1CC2CCC(CC2)C1,GI50,NCI-H460,> 100 µM (inactive)
same,GI50,RXF 393,> 100 µM (inactive)
same,GI50,HCC 2998,> 100 µM (inactive)
same,GI50,M14,> 100 µM (inactive)
same,GI50,T47D,> 100 µM (inactive)
same,GI50,UACC-62,> 100 µM (inactive)
same,GI50,CAKI-1,> 100 µM (inactive)
same,GI50,Malme-3M,> 100 µM (inactive)
same,GI50,PC-3,> 100 µM (inactive)
same,GI50,HT-29,> 100 µM (inactive)
same,GI50,HL-60,> 100 µM (inactive)
same,GI50,IGROV-1,> 100 µM (inactive)
same,GI50,UACC-257,> 100 µM (inactive)
same,GI50,SK-OV-3,> 100 µM (inactive)
same,GI50,MOLT-4,> 100 µM (inactive)
same,GI50,U-251,> 100 µM (inactive)
same,GI50,A549,> 100 µM (inactive)
same,GI50,OVCAR-8,> 100 µM (inactive)
same,GI50,A498,> 100 µM (inactive)
same,GI50,UO-31,> 100 µM (inactive)
same,GI50,MCF7,> 100 µM (inactive)
same,GI50,OVCAR-5,> 100 µM (inactive)
same,GI50,HCT-116,> 100 µM (inactive)
same,GI50,SK-MEL-28,> 100 µM (inactive)
same,GI50,SF-295,> 100 µM (inactive)
same,GI50,HCT-15,> 100 µM
same,GI50,SK-MEL-2,> 100 µM (inactive)
same,GI50,SW-620,> 100 µM (inactive)
same,GI50,OVCAR-3,> 100 µM (inactive)
same,GI50,SK-MEL-5,> 100 µM (inactive)
same,GI50,HOP-92,> 100 µM (inactive)
same,GI50,CCRF-CEM,> 100 µM (inactive)
same,GI50,NCI-H522,> 100 µM (inactive)
same,GI50,COLO 205,> 100 µM (inactive)
same,GI50,Hs-578T,> 100 µM (inactive)
same,GI50,SR,> 100 µM (inactive)
same,GI50,786-0,> 100 µM (inactive)
same,GI50,BT-549,> 100 µM (inactive)
same,GI50,NCI/ADR-RES,> 100 µM (inactive)
same,GI50,KM12,> 100 µM (inactive)
same,GI50,DU-145,> 100 µM (inactive)
same,GI50,SNB-19,> 100 µM (inactive)
same,GI50,SNB-75,78.2 µM (inactive)
same,GI50,TK-10,> 100 µM (inactive)
same,GI50,MDA-N,> 100 µM (inactive)
same,GI50,NCI-H226,> 100 µM (inactive)
same,GI50,NCI-H23,> 100 µM (inactive)
same,GI50,RPMI-8226,> 100 µM (inactive)
same,GI50,ACHN,> 100 µM (inactive)
same,GI50,MDA-MB-435,> 100 µM (inactive)
same,GI50,OVCAR-4,> 100 µM (inactive)
same,GI50,LOX IMVI,> 100 µM (inactive)
same,GI50,K562,> 100 µM (inactive)
same,GI50,EKVX,> 100 µM (inactive)
same,GI50,MDA-MB-231,> 100 µM (inactive)
same,GI50,SF-539,> 100 µM (inactive)
N#Cc1c(N)c2c(c(-c3ccccc3)c1-c1ccccc1)C(=O)N(O)C2=O,GI50,NCI-H460,47.1 µM (inactive)
same,GI50,RXF 393,10.5 µM (inactive)
same,GI50,HCC 2998,17.5 µM (inactive)
same,GI50,M14,> 100 µM (inactive)
same,GI50,T47D,22.8 µM (inactive)
same,GI50,UACC-62,39.9 µM (inactive)
same,GI50,CAKI-1,> 100 µM (inactive)
same,GI50,Malme-3M,> 100 µM (inactive)
same,GI50,PC-3,14.1 µM (inactive)
same,GI50,HL-60,53.7 µM (inactive)
same,GI50,IGROV-1,19.5 µM (inactive)
same,GI50,UACC-257,> 100 µM (inactive)
same,GI50,MOLT-4,35.6 µM (inactive)
same,GI50,U-251,94.6 µM (inactive)
same,GI50,A549,31 µM (inactive)
same,GI50,OVCAR-8,> 100 µM (inactive)
same,GI50,A498,37.8 µM (inactive)
same,GI50,UO-31,37 µM (inactive)
same,GI50,MCF7,46.1 µM (inactive)
same,GI50,OVCAR-5,63 µM (inactive)
same,GI50,HCT-116,19.5 µM (inactive)
same,GI50,SK-MEL-28,40.7 µM (inactive)
same,GI50,SF-295,38.7 µM (inactive)
same,GI50,HCT-15,70 µM
same,GI50,SK-MEL-2,41 µM (inactive)
same,GI50,SW-620,96.8 µM (inactive)
same,GI50,OVCAR-3,26.9 µM (inactive)
same,GI50,SK-MEL-5,25.3 µM (inactive)
same,GI50,HOP-92,64.1 µM (inactive)
same,GI50,CCRF-CEM,29.8 µM (inactive)
same,GI50,NCI-H522,56.2 µM (inactive)
same,GI50,COLO 205,20.2 µM (inactive)
same,GI50,Hs-578T,18.9 µM (inactive)
same,GI50,SR,62.7 µM (inactive)
same,GI50,SF-268,> 100 µM (inactive)
same,GI50,786-0,47.1 µM (inactive)
same,GI50,BT-549,42.2 µM (inactive)
same,GI50,NCI/ADR-RES,> 100 µM (inactive)
same,GI50,KM12,29.6 µM (inactive)
same,GI50,DU-145,39.4 µM (inactive)
same,GI50,SNB-19,37.8 µM (inactive)
same,GI50,SNB-75,34 µM (inactive)
same,GI50,TK-10,91.4 µM (inactive)
same,GI50,MDA-N,82 µM (inactive)
same,GI50,NCI-H226,18.8 µM (inactive)
same,GI50,RPMI-8226,42.4 µM (inactive)
same,GI50,ACHN,> 100 µM (inactive)
same,GI50,MDA-MB-435,79.4 µM (inactive)
same,GI50,OVCAR-4,66.8 µM (inactive)
same,GI50,LOX IMVI,89.7 µM (inactive)
same,GI50,K562,91.8 µM (inactive)
same,GI50,SN12C,> 100 µM (inactive)
same,GI50,EKVX,36.6 µM (inactive)
same,GI50,MDA-MB-231,> 100 µM (inactive)
same,GI50,SF-539,66.5 µM (inactive)
C[C@H]1CC[C@@H]2[C@@H](C)[C@H]3[C@H](C[C@H]4[C@@H]5CC=C6C[C@@H](O)CC[C@]6(C)[C@H]5CC[C@]34C)N2C1,GI50,NCI-H460,37.9 µM (inactive)
same,GI50,RXF 393,19.4 µM (inactive)
same,GI50,HCC 2998,97.1 µM (inactive)
same,GI50,M14,74 µM (inactive)
same,GI50,T47D,86.9 µM (inactive)
same,GI50,UACC-62,43 µM (inactive)
same,GI50,CAKI-1,41.1 µM (inactive)
same,GI50,Malme-3M,> 100 µM (inactive)
same,GI50,PC-3,50.9 µM (inactive)
same,GI50,HT-29,18.6 µM (inactive)
same,GI50,HL-60,17.5 µM (inactive)
same,GI50,IGROV-1,27.9 µM (inactive)
same,GI50,UACC-257,45.1 µM (inactive)
same,GI50,SK-OV-3,> 100 µM (inactive)
same,GI50,MOLT-4,24.5 µM (inactive)
same,GI50,U-251,31.8 µM (inactive)
same,GI50,A549,> 100 µM (inactive)
same,GI50,OVCAR-8,32.5 µM (inactive)
same,GI50,A498,13.6 µM (inactive)
same,GI50,UO-31,60.5 µM (inactive)
same,GI50,MCF7,38.5 µM (inactive)
same,GI50,OVCAR-5,> 100 µM (inactive)
same,GI50,HCT-116,36.4 µM (inactive)
same,GI50,SK-MEL-28,47.1 µM (inactive)
same,GI50,SF-295,40.6 µM (inactive)
same,GI50,HCT-15,> 100 µM
same,GI50,SK-MEL-2,> 100 µM (inactive)
same,GI50,SW-620,75.2 µM (inactive)
same,GI50,OVCAR-3,> 100 µM (inactive)
same,GI50,SK-MEL-5,38.3 µM (inactive)
same,GI50,HOP-92,12.6 µM (inactive)
same,GI50,CCRF-CEM,32.5 µM (inactive)
same,GI50,NCI-H522,42.6 µM (inactive)
same,GI50,COLO 205,16.3 µM (inactive)
same,GI50,Hs-578T,33.3 µM (inactive)
same,GI50,SR,22.6 µM (inactive)
same,GI50,SF-268,> 100 µM (inactive)
same,GI50,786-0,30.4 µM (inactive)
same,GI50,BT-549,93.1 µM (inactive)
same,GI50,NCI/ADR-RES,54.7 µM (inactive)
same,GI50,KM12,30.3 µM (inactive)
same,GI50,DU-145,> 100 µM (inactive)
same,GI50,SNB-19,97.9 µM (inactive)
same,GI50,TK-10,33 µM (inactive)
same,GI50,MDA-N,> 100 µM (inactive)
same,GI50,NCI-H226,14.6 µM (inactive)
same,GI50,NCI-H23,88.5 µM (inactive)
same,GI50,RPMI-8226,26.3 µM (inactive)
same,GI50,ACHN,59.8 µM (inactive)
same,GI50,MDA-MB-435,89.7 µM (inactive)
same,GI50,OVCAR-4,32.4 µM (inactive)
same,GI50,LOX IMVI,36.1 µM (inactive)
same,GI50,SN12C,> 100 µM (inactive)
same,GI50,EKVX,36.4 µM (inactive)
same,GI50,MDA-MB-231,39.4 µM (inactive)
same,GI50,SF-539,65.9 µM (inactive)
same,GI50,HOP-62,31.4 µM (inactive)
